{"source": "patent US12049450B2", "about": "“Pyridyloxy-carboxylate derivative and preparation method therefor, herbicidal composition, and use” (Qingdao Kingagroot Chemical Compound Co., Ltd., priority 2018, dated 2024)", "assay_in_all_cases": "Post-emergence test experiment (greenhouse pot, spray at 2-3 leaf stage)", "format_in_all_cases": "in vivo", "conditions_in_all_cases": "1000 g/ha; post-emergence spray at 2-3 leaf stage; assessed after 3 weeks; fresh weight inhibition rate", "key": {"[1]": {"test_system": "Monochoria vaginalis", "procedure,_shortened": "(§1)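 Activity graded levels 0-5 by fresh-weight inhibition (level 5 above 85%, level 0 below 5%), assessed 3 weeks after treatment. Plants grown in greenhouse pots were sprayed post-emergence at 2-3 leaves using acetone/tween-80 solutions with methyl oleate synergist (1.5 L/ha).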"}, "[2]": {"test_system": "Abutilon theophrasti", "procedure,_shortened": "as §1"}, "[3]": {"test_system": "Echinochloa crusgalli", "procedure,_shortened": "as §1"}, "[4]": {"test_system": "Galium spurium", "procedure,_shortened": "as §1"}, "[5]": {"test_system": "Digitaria sanguinalis", "procedure,_shortened": "as §1"}}}
{"smiles": "CC(Oc1nc(F)c(Cl)c(N)c1Cl)C(=O)OCc1ccc(C#N)cc1", "note": "(stereo not drawn) [Compound 91]", "values": [{"measurement": "Activity level (growth inhibition rate) Monochoria Vaginalis", "setting": "[1]", "result": "5 (Level 5: the growth inhibition rate is greater than 85%)"}, {"measurement": "Activity level (growth inhibition rate) Abutilon theophrasti", "setting": "[2]", "result": "5 (Level 5: the growth inhibition rate is greater than 85%)"}, {"measurement": "Activity level (growth inhibition rate) Echinochloa crusgalli", "setting": "[3]", "result": "5 (Level 5: the growth inhibition rate is greater than 85%)"}, {"measurement": "Activity level (growth inhibition rate) Galium spurium", "setting": "[4]", "result": "5 (Level 5: the growth inhibition rate is greater than 85%)"}, {"measurement": "Activity level (growth inhibition rate) Digitaria sanguinalis", "setting": "[5]", "result": "5 (Level 5: the growth inhibition rate is greater than 85%)"}]}
{"smiles": "CSc1cccc(COC(=O)C(C)Oc2nc(F)c(Cl)c(N)c2Cl)c1", "note": "(stereo not drawn) [Compound 92]", "values": [{"measurement": "Activity level (growth inhibition rate) Monochoria Vaginalis", "setting": "[1]", "result": "5 (Level 5: the growth inhibition rate is greater than 85%)"}, {"measurement": "Activity level (growth inhibition rate) Abutilon theophrasti", "setting": "[2]", "result": "5 (Level 5: the growth inhibition rate is greater than 85%)"}, {"measurement": "Activity level (growth inhibition rate) Echinochloa crusgalli", "setting": "[3]", "result": "5 (Level 5: the growth inhibition rate is greater than 85%)"}, {"measurement": "Activity level (growth inhibition rate) Galium spurium", "setting": "[4]", "result": "5 (Level 5: the growth inhibition rate is greater than 85%)"}, {"measurement": "Activity level (growth inhibition rate) Digitaria sanguinalis", "setting": "[5]", "result": "5 (Level 5: the growth inhibition rate is greater than 85%)"}]}
{"smiles": "CC(Oc1nc(F)c(Cl)c(N)c1Cl)C(=O)OCc1ccc(N(C)C)cc1", "note": "(stereo not drawn) [Compound 93]", "values": [{"measurement": "Activity level (growth inhibition rate) Monochoria Vaginalis", "setting": "[1]", "result": "5 (Level 5: the growth inhibition rate is greater than 85%)"}, {"measurement": "Activity level (growth inhibition rate) Abutilon theophrasti", "setting": "[2]", "result": "5 (Level 5: the growth inhibition rate is greater than 85%)"}, {"measurement": "Activity level (growth inhibition rate) Echinochloa crusgalli", "setting": "[3]", "result": "5 (Level 5: the growth inhibition rate is greater than 85%)"}, {"measurement": "Activity level (growth inhibition rate) Galium spurium", "setting": "[4]", "result": "5 (Level 5: the growth inhibition rate is greater than 85%)"}, {"measurement": "Activity level (growth inhibition rate) Digitaria sanguinalis", "setting": "[5]", "result": "5 (Level 5: the growth inhibition rate is greater than 85%)"}]}
{"smiles": "CC(Oc1nc(F)c(Cl)c(N)c1Cl)C(=O)SCc1ccccc1N=[N+]=[N-]", "note": "(stereo not drawn) [Compound 94]", "values": [{"measurement": "Activity level (growth inhibition rate) Monochoria Vaginalis", "setting": "[1]", "result": "5 (Level 5: the growth inhibition rate is greater than 85%)"}, {"measurement": "Activity level (growth inhibition rate) Abutilon theophrasti", "setting": "[2]", "result": "5 (Level 5: the growth inhibition rate is greater than 85%)"}, {"measurement": "Activity level (growth inhibition rate) Echinochloa crusgalli", "setting": "[3]", "result": "5 (Level 5: the growth inhibition rate is greater than 85%)"}, {"measurement": "Activity level (growth inhibition rate) Galium spurium", "setting": "[4]", "result": "5 (Level 5: the growth inhibition rate is greater than 85%)"}, {"measurement": "Activity level (growth inhibition rate) Digitaria sanguinalis", "setting": "[5]", "result": "5 (Level 5: the growth inhibition rate is greater than 85%)"}]}
{"smiles": "CC(Oc1nc(F)c(Cl)c(N)c1Cl)C(=O)SCc1ccc(C#CCF)cc1", "note": "(stereo not drawn) [Compound 95]", "values": [{"measurement": "Activity level (growth inhibition rate) Monochoria Vaginalis", "setting": "[1]", "result": "5 (Level 5: the growth inhibition rate is greater than 85%)"}, {"measurement": "Activity level (growth inhibition rate) Abutilon theophrasti", "setting": "[2]", "result": "5 (Level 5: the growth inhibition rate is greater than 85%)"}, {"measurement": "Activity level (growth inhibition rate) Echinochloa crusgalli", "setting": "[3]", "result": "5 (Level 5: the growth inhibition rate is greater than 85%)"}, {"measurement": "Activity level (growth inhibition rate) Galium spurium", "setting": "[4]", "result": "5 (Level 5: the growth inhibition rate is greater than 85%)"}, {"measurement": "Activity level (growth inhibition rate) Digitaria sanguinalis", "setting": "[5]", "result": "5 (Level 5: the growth inhibition rate is greater than 85%)"}]}
{"smiles": "CC(Oc1nc(F)c(Cl)c(N)c1Cl)C(=O)OCc1cccc(OCC(F)(F)F)c1", "note": "(stereo not drawn) [Compound 96]", "values": [{"measurement": "Activity level (growth inhibition rate) Monochoria Vaginalis", "setting": "[1]", "result": "5 (Level 5: the growth inhibition rate is greater than 85%)"}, {"measurement": "Activity level (growth inhibition rate) Abutilon theophrasti", "setting": "[2]", "result": "5 (Level 5: the growth inhibition rate is greater than 85%)"}, {"measurement": "Activity level (growth inhibition rate) Echinochloa crusgalli", "setting": "[3]", "result": "5 (Level 5: the growth inhibition rate is greater than 85%)"}, {"measurement": "Activity level (growth inhibition rate) Galium spurium", "setting": "[4]", "result": "5 (Level 5: the growth inhibition rate is greater than 85%)"}, {"measurement": "Activity level (growth inhibition rate) Digitaria sanguinalis", "setting": "[5]", "result": "5 (Level 5: the growth inhibition rate is greater than 85%)"}]}
{"smiles": "CC(=O)Nc1ccc(CSC(=O)C(C)Oc2nc(F)c(Cl)c(N)c2Cl)cc1", "note": "(stereo not drawn) [Compound 97]", "values": [{"measurement": "Activity level (growth inhibition rate) Monochoria Vaginalis", "setting": "[1]", "result": "5 (Level 5: the growth inhibition rate is greater than 85%)"}, {"measurement": "Activity level (growth inhibition rate) Abutilon theophrasti", "setting": "[2]", "result": "5 (Level 5: the growth inhibition rate is greater than 85%)"}, {"measurement": "Activity level (growth inhibition rate) Echinochloa crusgalli", "setting": "[3]", "result": "5 (Level 5: the growth inhibition rate is greater than 85%)"}, {"measurement": "Activity level (growth inhibition rate) Galium spurium", "setting": "[4]", "result": "5 (Level 5: the growth inhibition rate is greater than 85%)"}, {"measurement": "Activity level (growth inhibition rate) Digitaria sanguinalis", "setting": "[5]", "result": "5 (Level 5: the growth inhibition rate is greater than 85%)"}]}
{"smiles": "COC(=O)c1ccc(COC(=O)C(C)Oc2nc(F)c(Cl)c(N)c2Cl)cc1", "note": "(stereo not drawn) [Compound 98]", "values": [{"measurement": "Activity level (growth inhibition rate) Monochoria Vaginalis", "setting": "[1]", "result": "5 (Level 5: the growth inhibition rate is greater than 85%)"}, {"measurement": "Activity level (growth inhibition rate) Abutilon theophrasti", "setting": "[2]", "result": "5 (Level 5: the growth inhibition rate is greater than 85%)"}, {"measurement": "Activity level (growth inhibition rate) Echinochloa crusgalli", "setting": "[3]", "result": "5 (Level 5: the growth inhibition rate is greater than 85%)"}, {"measurement": "Activity level (growth inhibition rate) Galium spurium", "setting": "[4]", "result": "5 (Level 5: the growth inhibition rate is greater than 85%)"}, {"measurement": "Activity level (growth inhibition rate) Digitaria sanguinalis", "setting": "[5]", "result": "5 (Level 5: the growth inhibition rate is greater than 85%)"}]}
{"smiles": "CC(=O)Cc1ccc(COC(=O)C(C)Oc2nc(F)c(Cl)c(N)c2Cl)cc1", "note": "(stereo not drawn) [Compound 99]", "values": [{"measurement": "Activity level (growth inhibition rate) Monochoria Vaginalis", "setting": "[1]", "result": "5 (Level 5: the growth inhibition rate is greater than 85%)"}, {"measurement": "Activity level (growth inhibition rate) Abutilon theophrasti", "setting": "[2]", "result": "5 (Level 5: the growth inhibition rate is greater than 85%)"}, {"measurement": "Activity level (growth inhibition rate) Echinochloa crusgalli", "setting": "[3]", "result": "5 (Level 5: the growth inhibition rate is greater than 85%)"}, {"measurement": "Activity level (growth inhibition rate) Galium spurium", "setting": "[4]", "result": "5 (Level 5: the growth inhibition rate is greater than 85%)"}, {"measurement": "Activity level (growth inhibition rate) Digitaria sanguinalis", "setting": "[5]", "result": "5 (Level 5: the growth inhibition rate is greater than 85%)"}]}
{"smiles": "CCOCc1cccc(C(C)OC(=O)C(C)Oc2nc(F)c(Cl)c(N)c2Cl)c1", "note": "(stereo not drawn) [Compound 100]", "values": [{"measurement": "Activity level (growth inhibition rate) Monochoria Vaginalis", "setting": "[1]", "result": "5 (Level 5: the growth inhibition rate is greater than 85%)"}, {"measurement": "Activity level (growth inhibition rate) Abutilon theophrasti", "setting": "[2]", "result": "5 (Level 5: the growth inhibition rate is greater than 85%)"}, {"measurement": "Activity level (growth inhibition rate) Echinochloa crusgalli", "setting": "[3]", "result": "5 (Level 5: the growth inhibition rate is greater than 85%)"}, {"measurement": "Activity level (growth inhibition rate) Galium spurium", "setting": "[4]", "result": "5 (Level 5: the growth inhibition rate is greater than 85%)"}, {"measurement": "Activity level (growth inhibition rate) Digitaria sanguinalis", "setting": "[5]", "result": "5 (Level 5: the growth inhibition rate is greater than 85%)"}]}
{"smiles": "CC(Oc1nc(F)c(Cl)c(N)c1Cl)C(=O)OCc1cccc(CC(N)=O)c1", "note": "(stereo not drawn) [Compound 101]", "values": [{"measurement": "Activity level (growth inhibition rate) Monochoria Vaginalis", "setting": "[1]", "result": "5 (Level 5: the growth inhibition rate is greater than 85%)"}, {"measurement": "Activity level (growth inhibition rate) Abutilon theophrasti", "setting": "[2]", "result": "5 (Level 5: the growth inhibition rate is greater than 85%)"}, {"measurement": "Activity level (growth inhibition rate) Echinochloa crusgalli", "setting": "[3]", "result": "5 (Level 5: the growth inhibition rate is greater than 85%)"}, {"measurement": "Activity level (growth inhibition rate) Galium spurium", "setting": "[4]", "result": "5 (Level 5: the growth inhibition rate is greater than 85%)"}, {"measurement": "Activity level (growth inhibition rate) Digitaria sanguinalis", "setting": "[5]", "result": "5 (Level 5: the growth inhibition rate is greater than 85%)"}]}
{"smiles": "CC(Oc1nc(F)c(Cl)c(N)c1Cl)C(=O)OCc1ccc(C2CC2Cl)cc1", "note": "(stereo not drawn) [Compound 102]", "values": [{"measurement": "Activity level (growth inhibition rate) Monochoria Vaginalis", "setting": "[1]", "result": "5 (Level 5: the growth inhibition rate is greater than 85%)"}, {"measurement": "Activity level (growth inhibition rate) Abutilon theophrasti", "setting": "[2]", "result": "5 (Level 5: the growth inhibition rate is greater than 85%)"}, {"measurement": "Activity level (growth inhibition rate) Echinochloa crusgalli", "setting": "[3]", "result": "5 (Level 5: the growth inhibition rate is greater than 85%)"}, {"measurement": "Activity level (growth inhibition rate) Galium spurium", "setting": "[4]", "result": "5 (Level 5: the growth inhibition rate is greater than 85%)"}, {"measurement": "Activity level (growth inhibition rate) Digitaria sanguinalis", "setting": "[5]", "result": "5 (Level 5: the growth inhibition rate is greater than 85%)"}]}
